In patent US9408393B2, “Bismuth-thiols as antiseptics for agricultural, industrial and other uses” (Microbion Corporation, priority 2010, dated 2016):

Legend:
S. aureus = test: Contaminated open fracture, rat femur critical defect model; assay type: in vivo; conditions: BT gel 5 mg/ml, 1 ml in defect, with Cefazolin 5 mgKg^−1 s.c. twice daily 3 days, day 14
Text: Standard errors of the mean are shown as error bars. Animals euthanized early are not excluded from the analysis, however samples from one animal in group 2 have been excluded due to gross contamination.
The aim of this study was to determine whether BTs will reduce infection in a contaminated open fracture model either on their own or with antibiotics. The contaminated rat femur critical defect model is a well-accepted model and was used for the experiments described in this Example. This model offers a standardized model for comparing various possible treatments and their effects on reducing infection and/or improving healing.
Three formulations of microparticulate BTs were produced in a clinically useful hydrogel gel form as described herein.
Two treatment arms were used: in the first arm, BT was used singularly; in the second arm BT was used in conjunction with a systemic antibiotic (ABx).
Six hours after inoculation with S. aureus, the wound was debrided, irrigated with saline and 1 ml of BT gel inserted within the defect.
Six hours after inoculation with S. aureus, the wound was debrided, irrigated with saline and 1 ml of BT gel added inserted within the defect. The antibiotic used was Cefazolin at a dose equivalent to 5 mgKg^−1 delivered via sub-cutaneous injection twice daily for a total of 3-days following the injury. The first dose was administered immediately prior to debridement.
Six hours after inoculation with S. aureus, the wound was debrided and irrigated with saline. The control animals were also treated with Cefazolin as per the regime described above.
The procedure for the in vivo rat injury model was performed as described by Chen et al. (2002 J. Orthop. Res. 20:142; 2005 J. Orthop. Res. 23:816; 2006 J. Bone Joint Surg. Am. 88:1510; 2007 J. Orthop. Trauma 21:693). The rats were anesthetized and prepped for surgery. The anterolateral aspect of the femoral shaft was exposed through a 3-cm incision. The periosteum and attached muscle was stripped from the bone. A polyacetyl plate (27×4×4 mm) was placed on the anterolateral surface of the femur. The plates were predrilled to accept 0.9-mm diameter threaded Kirschner wires. The bases of these plates were formed to fit the contour of the femoral shaft. Pilot holes were drilled through both cortices of the femur using the plate as a template and threaded Kirschner wire was inserted through the plate and femur. The notches that were 6 mm apart on the plate served as a guide for bone removal. A small oscillating saw was used to create the defect while the tissue was cooled by continuous irrigation in an effort to prevent thermal damage.
Several groups of 10 animals each were inoculated with 1×10^5 CFU of S. aureus and treated with BT alone or in combination with antibiotics 6 hours post-inoculation as described above. The groups were as follows: Bis-EDT gel; MB-11 gel; MB-8-2 gel; Bis-EDT gel & Abx; MB-11 gel & Abx; MB-8-2 gel & Abx; Control (Abx alone).
Animals were euthanized 14 days after surgery and bone and hardware sent for microbiological analysis, the results of which are shown in FIG. 7.

[1] = tested on: Gram-negative pathogenic bacteria; test: Checkerboard broth microdilution MIC and FICI; assay type: cell-based; conditions: for MIC (μg/mL) Alone: compound alone; for FICI, Fractional Inhibitory Concentration Index: in combination with Cefotaxime
Experimental: The effects of combinations of microparticulate Bis-EDT and four Bis-EDT analogs prepared as described above, and other agents against representative strains of several Gram-negative pathogenic bacteria were tested. A modification of a common laboratory method was used to determine synergism (FICI≦0.5), enhancement (0.5<FICI≦1.0), antagonism (FICI>4.0) and indifference (1.0<FICI≦4.0) used fractional inhibitory concentrations (FICs) and FIC indices (FICI) (Eliopoulos G and R Moellering. 1991. Antimicrobial combinations. In Antibiotics in Laboratory Medicine, Third Edition, edited by V Lorian. Williams and Wilkins, Baltimore, Md., pp. 432-492; Odds, 2003 J. Antimicrob. Chemother. 52(1):1). The checkerboard technique was used to determine FIC indices and was employed in this study.
Stock solutions of all test articles were prepared at 40× the final target concentration in the appropriate solvent. […] The final drug concentrations in the FIC assay plates were set to bracket the MIC value of each agent for each test organism, unless the strain was totally resistant to the test agent. […] The test organisms were originally received from clinical sources, or from the American Type Culture Collection. Upon receipt, the isolates were streaked onto Tryptic Soy Agar II (TSA). Colonies were harvested from these plates and a cell suspension was prepared in an appropriate broth growth medium containing cryoprotectant. Aliquots were then frozen at −80° C. The frozen seeds of the organisms to be tested in a given assay were thawed, streaked for isolation onto TSA plates, and incubated at 35° C. All organisms were tested in Mueller Hinton II Broth (Becton Dickinson, Lot No. 9044411). The broth was prepared at 1.05× normal weight/volume to offset the 5% volume of the drugs in the final test plates.
Minimal Inhibitory Concentration (MIC) values were previously determined using the broth microdilution method for aerobic bacteria (Clinical and Laboratory Standards Institute (CLSI). Methods for Dilution Antimicrobial Susceptibility Tests for Bacteria That Grow Aerobically; Approved Standard—Eighth Edition. CLSI document M07-A8 [ISBN 1-56238-689-1]. Clinical and Laboratory Standards Institute, 940 West Valley Road, Suite 1400, Wayne, Pa. 19087-1898 USA, 2009.).
FIC values were determined using a broth microdilution method previously described (Sweeney et al., 2003 Antimicrob. Agents Chemother. 47(6):1902-1906). To prepare the test plates, automated liquid handlers (Multidrop 384, Labsystems, Helsinki, Finland; Biomek 2000 and Multimek 96, Beckman Coulter, Fullerton Calif.) were used to conduct serial dilutions and liquid transfers.
The appropriate wells of standard 96-well microdilution plates (Falcon 3918) were filled with 150 μL of the appropriate solvent in columns 2-12 using the Multidrop 384. Three hundred microliters of each secondary test drug was added to each well in Column 1 of the plates. These plates were used to prepare the drug “mother plates” which provided the serial drug dilutions for the drug combination plates. The Biomek 2000 was used to transfer 150 μL of each secondary drug solution (40×) from the wells in Column 1 of the mother plate and to make eleven 2-fold serial dilutions. Mother plates of Bis-EDT (and analogs) were serial diluted top to bottom by hand, using a multichannel pipette. Two mother plates, one for each secondary drug and one for Bis-EDT (or analogs), were combined to form a “checkerboard” pattern by transfer of equal volumes (using a multi-channel pipette) to the drug combination plate. Row H and Column 12 each contained serial dilutions of one of the agents alone for determination of the MIC.
The “daughter plates” were loaded with 180 μL of test medium using the Multidrop 384. Then, the Multimek 96 was used to transfer 10 μL of drug solution from each well of the drug combination mother plate to each corresponding well of the daughter plate in a single step.

P. aeruginosa = test: Checkerboard broth microdilution MIC and FICI; assay type: cell-based, Pseudomonas aeruginosa; conditions: for MIC (μg/mL) Alone: compound alone
S. aureus strains = test: In vitro inhibition from PMMA cement bead vehicle; assay type: cell-based, Staphylococcus aureus; conditions: with and without Tobramicin and Vancomycin
Mycobacterium smegmatis = test: Single-point BisEDT-antibiotic combination FICI; assay type: cell-based; conditions: Msmeg 817
[2] = P. aeruginosa 103, in combination with Cefepime
[3] = P. aeruginosa 103, in combination with Cefotaxime
[4] = P. aeruginosa 1381, in combination with Cefepime
[5] = P. aeruginosa 1384, in combination with Cefepime
[6] = P. aeruginosa 1474, in combination with Cefepime
[7] = P. aeruginosa 1479, in combination with Cefepime
[8] = P. aeruginosa 2566, in combination with Cefepime
[9] = P. aeruginosa 2568, in combination with Cefepime

Molecule	S. aureus infection detected on hardware, effect on Cefazolin activity (S. aureus)	S. aureus infection of injured bone, effect on Cefazolin activity (S. aureus)	MIC (μg/mL) Alone ([1]; K. pneumoniae 1346)	FICI, Fractional Inhibitory Concentration Index ([1]; K. pneumoniae 1346)	MIC (μg/mL) Alone ([1]; K. pneumoniae 1355)	FICI, Fractional Inhibitory Concentration Index ([1]; K. pneumoniae 1355)	MIC (μg/mL) Alone ([1]; K. pneumoniae 2238)	FICI, Fractional Inhibitory Concentration Index ([1]; K. pneumoniae 2238)	MIC (μg/mL) Alone ([1]; K. pneumoniae 2541)	FICI, Fractional Inhibitory Concentration Index ([1]; K. pneumoniae 2541)	MIC (μg/mL) Alone ([1]; K. pneumoniae 2546)	MIC (μg/mL) Alone ([1]; K. pneumoniae 2549)	FICI, Fractional Inhibitory Concentration Index ([1]; K. pneumoniae 2549)	MIC (μg/mL) Alone (P. aeruginosa; P. aeruginosa 103)	FICI, Fractional Inhibitory Concentration Index (P. aeruginosa; [2])	FICI, Fractional Inhibitory Concentration Index (P. aeruginosa; [3])	MIC (μg/mL) Alone (P. aeruginosa; P. aeruginosa 1381)	FICI, Fractional Inhibitory Concentration Index (P. aeruginosa; [4])	MIC (μg/mL) Alone (P. aeruginosa; P. aeruginosa 1384)	FICI, Fractional Inhibitory Concentration Index (P. aeruginosa; [5])	further results
bismuth pyrithione/butanedithiol [MB-8-2]	enhanced antibiotic activity	enhanced	0.5 µg/mL	1.37	0.5 µg/mL	1.37	0.5 µg/mL	1.37	1 µg/mL	1.12	1 µg/mL	1 µg/mL	1.12	2 µg/mL	1.11	1.11	2 µg/mL	1.23	2 µg/mL	0.80	MIC (μg/mL) Alone (P. aeruginosa; P. aeruginosa 1474): 2 µg/mL; FICI, Fractional Inhibitory Concentration Index (P. aeruginosa; [6]): 1.11; MIC (μg/mL) Alone (P. aeruginosa; P. aeruginosa 1479): 2 µg/mL; FICI, Fractional Inhibitory Concentration Index (P. aeruginosa; [7]): 1.23; MIC (μg/mL) Alone (P. aeruginosa; P. aeruginosa 2566): 2 µg/mL; FICI, Fractional Inhibitory Concentration Index (P. aeruginosa; [8]): 1.23; MIC (μg/mL) Alone (P. aeruginosa; P. aeruginosa 2568): 2 µg/mL; FICI, Fractional Inhibitory Concentration Index (P. aeruginosa; [9]): 0.98; Effect on S. aureus strains in vitro from PMMA cement beads (S. aureus strains): inhibitory effects
NNC(=O)c1ccncc1 [Isoniazid]	–	–	–	–	–	–	–	–	–	–	–	–	–	–	–	–	–	–	–	–	FICI, single-point BisEDT-antibiotic combination (Mycobacterium smegmatis): 0.88
Capreomycin	–	–	–	–	–	–	–	–	–	–	–	–	–	–	–	–	–	–	–	–	FICI, single-point BisEDT-antibiotic combination (Mycobacterium smegmatis): 0.75
bismuth pyrithione/ethanedithiol [MB-11]	enhanced antibiotic activity	enhanced	0.5 µg/mL	1.37	0.5 µg/mL	1.87	0.5 µg/mL	1.37	0.5 µg/mL	0.73	0.5 µg/mL	0.5 µg/mL	1.37	1 µg/mL	0.12	1.12	1 µg/mL	1.12	1 µg/mL	1.12	FICI, Fractional Inhibitory Concentration Index ([1]; K. pneumoniae 2546): 1.37; MIC (μg/mL) Alone (P. aeruginosa; P. aeruginosa 1474): 0.5 µg/mL; FICI, Fractional Inhibitory Concentration Index (P. aeruginosa; [6]): 1.12; MIC (μg/mL) Alone (P. aeruginosa; P. aeruginosa 1479): 0.5 µg/mL; FICI, Fractional Inhibitory Concentration Index (P. aeruginosa; [7]): 0.87; MIC (μg/mL) Alone (P. aeruginosa; P. aeruginosa 2566): 0.5 µg/mL; FICI, Fractional Inhibitory Concentration Index (P. aeruginosa; [8]): 0.93; MIC (μg/mL) Alone (P. aeruginosa; P. aeruginosa 2568): 0.5 µg/mL; FICI, Fractional Inhibitory Concentration Index (P. aeruginosa; [9]): 0.87; Effect on S. aureus strains in vitro from PMMA cement beads (S. aureus strains): inhibitory effects
